Results as given in PubChem BioAssay (NCI).
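Where inhibition never reached the appropriate level, the endpoint shown equals the highest concentration tested. Otherwise, values were interpolated linearly from a five-concentration, 48-hour dose response in 96-well plates. Here, GI50 denotes the concentration required for 50% inhibition of growth. TGI denotes the concentration required for complete inhibition of growth.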

Test system: KM12 colon
Test: inhibition of tumour cell growth, NCI panel, 48 h

SMILES | GI50 [µM] | TGI [µM]
Clc1ccc(N=CNc2ccc(-c3nc4ccccc4o3)cc2)cc1 | 15.4 | 38.7
COc1ccc2c(c1)C(C)Cc1c(ncnc1-n1cnc3cc(C)ccc31)N2C (stereo not drawn) | 0.132 | 11.7

Test system: SK-MEL-2 melanoma
Test: inhibition of tumour cell growth, NCI panel, 48 h

SMILES | TGI [µM] | GI50 [µM]
CC(C)(C)OC(=O)n1c(-c2ccccc2F)cc(=O)c2cc3c(cc21)OCO3 | > 100 | 
COC(=O)c1cc(/C=C/c2ccc(S(N)(=O)=O)cc2)ccc1O | > 100 | 66.8
Clc1ccc(N=CNc2ccc(-c3nc4ccccc4o3)cc2)cc1 | > 100 | 30
COc1ccc2c(c1)C(C)Cc1c(ncnc1-n1cnc3cc(C)ccc31)N2C (stereo not drawn) | 13.4 | 0.187

Test system: HCC-2998 colon
Test: inhibition of tumour cell growth, NCI panel, 48 h

SMILES | TGI [µM] | GI50 [µM]
CC(C)(C)OC(=O)n1c(-c2ccccc2F)cc(=O)c2cc3c(cc21)OCO3 | > 32.3 | 
c1csc(-c2c3ccc(=[N+]4CCCCC4)cc-3oc3cc(N4CCCCC4)ccc23)c1 | 0.14 | 0.0391
COC(=O)c1cc(/C=C/c2ccc(S(N)(=O)=O)cc2)ccc1O | 39.7 | 18
COc1ccc2c(c1)C(C)Cc1c(ncnc1-n1cnc3cc(C)ccc31)N2C (stereo not drawn) | 13.3 | 0.329

Test system: MALME-3M melanoma
Test: inhibition of tumour cell growth, NCI panel, 48 h

SMILES | TGI [µM] | GI50 [µM]
CC(C)(C)OC(=O)n1c(-c2ccccc2F)cc(=O)c2cc3c(cc21)OCO3 | > 100 | 
c1csc(-c2c3ccc(=[N+]4CCCCC4)cc-3oc3cc(N4CCCCC4)ccc23)c1 | 0.0822 | 0.027
COC(=O)c1cc(/C=C/c2ccc(S(N)(=O)=O)cc2)ccc1O | > 100 | 34.5

Test system: NCI-H23 lung
Test: inhibition of tumour cell growth, NCI panel, 48 h

SMILES | TGI [µM] | GI50 [µM]
CC(C)(C)OC(=O)n1c(-c2ccccc2F)cc(=O)c2cc3c(cc21)OCO3 | > 100 | 
COC(=O)c1cc(/C=C/c2ccc(S(N)(=O)=O)cc2)ccc1O | > 100 | > 100
COc1ccc2c(c1)C(C)Cc1c(ncnc1-n1cnc3cc(C)ccc31)N2C (stereo not drawn) | 23.4 | 0.4

Test system: HCT-116 colon
Test: inhibition of tumour cell growth, NCI panel, 48 h

SMILES | TGI [µM] | GI50 [µM]
CC(C)(C)OC(=O)n1c(-c2ccccc2F)cc(=O)c2cc3c(cc21)OCO3 | > 31.8 | 
COC(=O)c1cc(/C=C/c2ccc(S(N)(=O)=O)cc2)ccc1O | > 100 | 20
Clc1ccc(N=CNc2ccc(-c3nc4ccccc4o3)cc2)cc1 | > 100 | > 100
COc1ccc2c(c1)C(C)Cc1c(ncnc1-n1cnc3cc(C)ccc31)N2C (stereo not drawn) | 14.9 | 0.0736

Test system: CAKI-1 renal
Test: inhibition of tumour cell growth, NCI panel, 48 h

SMILES | TGI [µM] | GI50 [µM]
CC(C)(C)OC(=O)n1c(-c2ccccc2F)cc(=O)c2cc3c(cc21)OCO3 | > 37.3 | 
c1csc(-c2c3ccc(=[N+]4CCCCC4)cc-3oc3cc(N4CCCCC4)ccc23)c1 | 0.305 | 0.131
COC(=O)c1cc(/C=C/c2ccc(S(N)(=O)=O)cc2)ccc1O | > 100 | 28.6
Clc1ccc(N=CNc2ccc(-c3nc4ccccc4o3)cc2)cc1 | 39.2 | 15.5
COc1ccc2c(c1)C(C)Cc1c(ncnc1-n1cnc3cc(C)ccc31)N2C (stereo not drawn) | 12.6 | 0.0604

Test system: RXF 393 renal
Test: inhibition of tumour cell growth, NCI panel, 48 h

SMILES | TGI [µM] | GI50 [µM]
CC(C)(C)OC(=O)n1c(-c2ccccc2F)cc(=O)c2cc3c(cc21)OCO3 | > 40.3 | 
c1csc(-c2c3ccc(=[N+]4CCCCC4)cc-3oc3cc(N4CCCCC4)ccc23)c1 | 0.273 | 0.133
COC(=O)c1cc(/C=C/c2ccc(S(N)(=O)=O)cc2)ccc1O | > 100 | 43.4
Clc1ccc(N=CNc2ccc(-c3nc4ccccc4o3)cc2)cc1 | 80.6 | 25.8
COc1ccc2c(c1)C(C)Cc1c(ncnc1-n1cnc3cc(C)ccc31)N2C (stereo not drawn) | 25.3 | 0.0305

Test system: A549 NSCLC
Test: inhibition of tumour cell growth, NCI panel, 48 h

SMILES | TGI [µM] | GI50 [µM]
CC(C)(C)OC(=O)n1c(-c2ccccc2F)cc(=O)c2cc3c(cc21)OCO3 | > 39.7 | 
COC(=O)c1cc(/C=C/c2ccc(S(N)(=O)=O)cc2)ccc1O | > 100 | 29.6
Clc1ccc(N=CNc2ccc(-c3nc4ccccc4o3)cc2)cc1 | > 100 | 38
COc1ccc2c(c1)C(C)Cc1c(ncnc1-n1cnc3cc(C)ccc31)N2C (stereo not drawn) | 12.6 | 0.254

Test system: HOP-92 NSCLC
Test: inhibition of tumour cell growth, NCI panel, 48 h

SMILES | TGI [µM] | GI50 [µM]
CC(C)(C)OC(=O)n1c(-c2ccccc2F)cc(=O)c2cc3c(cc21)OCO3 | > 100 | 
c1csc(-c2c3ccc(=[N+]4CCCCC4)cc-3oc3cc(N4CCCCC4)ccc23)c1 | 0.309 | 0.127
COC(=O)c1cc(/C=C/c2ccc(S(N)(=O)=O)cc2)ccc1O | > 100 | 25.7
Clc1ccc(N=CNc2ccc(-c3nc4ccccc4o3)cc2)cc1 | > 100 | 57.1
COc1ccc2c(c1)C(C)Cc1c(ncnc1-n1cnc3cc(C)ccc31)N2C (stereo not drawn) | 15.9 | 0.329

Test system: MOLT-4 leukemia
Test: inhibition of tumour cell growth, NCI panel, 48 h

SMILES | TGI [µM] | GI50 [µM]
CC(C)(C)OC(=O)n1c(-c2ccccc2F)cc(=O)c2cc3c(cc21)OCO3 | 10 | 
c1csc(-c2c3ccc(=[N+]4CCCCC4)cc-3oc3cc(N4CCCCC4)ccc23)c1 | 0.473 | 0.0515
COC(=O)c1cc(/C=C/c2ccc(S(N)(=O)=O)cc2)ccc1O | > 100 | 73.1
Clc1ccc(N=CNc2ccc(-c3nc4ccccc4o3)cc2)cc1 | > 100 | 60.7
COc1ccc2c(c1)C(C)Cc1c(ncnc1-n1cnc3cc(C)ccc31)N2C (stereo not drawn) | 12.9 | 0.247

Test system: SN12C renal
Test: inhibition of tumour cell growth, NCI panel, 48 h

SMILES | GI50 [µM] | TGI [µM]
COC(=O)c1cc(/C=C/c2ccc(S(N)(=O)=O)cc2)ccc1O | 29.3 | 89.9
Clc1ccc(N=CNc2ccc(-c3nc4ccccc4o3)cc2)cc1 | 36.7 | > 100
COc1ccc2c(c1)C(C)Cc1c(ncnc1-n1cnc3cc(C)ccc31)N2C (stereo not drawn) | 0.38 | 20.5

Test system: T-47D breast
Test: inhibition of tumour cell growth, NCI panel, 48 h

SMILES | TGI [µM] | GI50 [µM]
CC(C)(C)OC(=O)n1c(-c2ccccc2F)cc(=O)c2cc3c(cc21)OCO3 | > 100 | 
Clc1ccc(N=CNc2ccc(-c3nc4ccccc4o3)cc2)cc1 | 52.1 | 13.1

Test system: RPMI-8226 leukemia
Test: inhibition of tumour cell growth, NCI panel, 48 h

SMILES | TGI [µM] | GI50 [µM]
CC(C)(C)OC(=O)n1c(-c2ccccc2F)cc(=O)c2cc3c(cc21)OCO3 | 20.7 | 
COC(=O)c1cc(/C=C/c2ccc(S(N)(=O)=O)cc2)ccc1O | > 100 | 27.4
Clc1ccc(N=CNc2ccc(-c3nc4ccccc4o3)cc2)cc1 | > 100 | 23.7
COc1ccc2c(c1)C(C)Cc1c(ncnc1-n1cnc3cc(C)ccc31)N2C (stereo not drawn) | 3.88 | 0.0407

Test system: HS 578T breast
Test: inhibition of tumour cell growth, NCI panel, 48 h

SMILES | TGI [µM] | GI50 [µM]
CC(C)(C)OC(=O)n1c(-c2ccccc2F)cc(=O)c2cc3c(cc21)OCO3 | 1.41 | 
c1csc(-c2c3ccc(=[N+]4CCCCC4)cc-3oc3cc(N4CCCCC4)ccc23)c1 | 0.565 | 0.0563
COC(=O)c1cc(/C=C/c2ccc(S(N)(=O)=O)cc2)ccc1O | 72.1 | 29.7
Clc1ccc(N=CNc2ccc(-c3nc4ccccc4o3)cc2)cc1 | 28 | 1.89
COc1ccc2c(c1)C(C)Cc1c(ncnc1-n1cnc3cc(C)ccc31)N2C (stereo not drawn) | 31.7 | 0.0686
